Laboratory results reported in ChEMBL document CHEMBL4004816, “Complementarity of DFT Calculations, NMR Anisotropy, and ECD for the Configurational Analysis of Brevipolides K-O from Hyptis brevipes” (J Nat Prod, 2017).

Assays:
Format in all cases: functional, cell-based
HCT-15 = assay: Cytotoxicity against human HCT15 cells assessed as growth inhibition after 72 hrs by SRB assay; conditions: HCT-15, 72 h
MCF7 = assay: Cytotoxicity against human MCF7 cells assessed as growth inhibition after 72 hrs by SRB assay; conditions: MCF7, 72 h
KB = assay: Cytotoxicity against human KB cells assessed as growth inhibition after 72 hrs by SRB assay
PC-3 = assay: Cytotoxicity against human PC3 cells assessed as growth inhibition after 72 hrs by SRB assay; conditions: PC-3, 72 h
HeLa = assay: Cytotoxicity against human HeLa cells assessed as growth inhibition after 72 hrs by SRB assay
HEp-2 = assay: Cytotoxicity against human Hep2 cells assessed as growth inhibition after 72 hrs by SRB assay; conditions: HEp-2, 72 h

Row | Structure (SMILES) | IC50 (HCT-15) [µM] | IC50 (MCF7) [µM] | IC50 (KB) [µM] | IC50 (PC-3) [µM] | IC50 (HeLa) [µM] | IC50 (HEp-2) [µM]
1 | C[C@H](OC(=O)/C=C/c1ccc(O)c(O)c1)[C@@H]1CC[C@H]([C@H](O)[C@H]2CC=CC(=O)O2)O1 | > 10 | > 10 | 4.9 | > 10 | 6.9 | 9.4
2 | COc1ccc(/C=C/C(=O)O[C@@H](C)[C@@H]2CC[C@H]([C@H](O)[C@H]3CC=CC(=O)O3)O2)cc1 | > 10 | > 10 | 1.7 | 7.5 | 6 | 5.7
3 | CC[C@]1(O)C[C@@H]2CN(CCc3c([nH]c4ccccc34)[C@@](C(=O)OC)(c3cc4c(cc3OC)N(C)[C@H]3[C@@](O)(C(=O)OC)[C@H](OC(C)=O)[C@]5(CC)C=CCN6CC[C@]43[C@@H]65)C2)C1 [VINBLASTINE] | 0.002 | 0.004 | 0.006 | 0.001 | 0.001 | 0.007
4 | COc1ccc(/C=C\C(=O)O[C@@H](C)[C@@H]2CC[C@H]([C@H](O)[C@H]3CC=CC(=O)O3)O2)cc1 | > 10 | > 10 | 9.5 | 10 | 4.2 | > 10
5 | C[C@H](OC(=O)/C=C\c1ccc(O)cc1)[C@@H]1CC[C@H]([C@H](O)[C@H]2CC=CC(=O)O2)O1 | > 10 | 9.3 | 7.5 | 8.8 | 3.3 | 7.7
6 | C[C@H](OC(=O)/C=C/c1ccc(O)cc1)[C@@H]1CC[C@H]([C@H](O)[C@H]2CC=CC(=O)O2)O1 | > 10 | > 10 | 3.6 | > 10 | 9.5 | > 10
